From ChEMBL document CHEMBL1127824, “6,6-Disubstituted Hex-5-enoic acid derivatives as combined thromboxane A2 receptor antagonists and synthetase inhibitors” (J Med Chem, 1994)
pEC50, pIC50: −log10 of the molar value. Where “and” joins values, the source holds several entries; their conditions need not be identical. Identical values can stand only once.

Assays:
[1] = biological target: T1, Thromboxane A2 receptor (Homo sapiens, UniProt P21731)
T1 sequence (P21731 whole entry): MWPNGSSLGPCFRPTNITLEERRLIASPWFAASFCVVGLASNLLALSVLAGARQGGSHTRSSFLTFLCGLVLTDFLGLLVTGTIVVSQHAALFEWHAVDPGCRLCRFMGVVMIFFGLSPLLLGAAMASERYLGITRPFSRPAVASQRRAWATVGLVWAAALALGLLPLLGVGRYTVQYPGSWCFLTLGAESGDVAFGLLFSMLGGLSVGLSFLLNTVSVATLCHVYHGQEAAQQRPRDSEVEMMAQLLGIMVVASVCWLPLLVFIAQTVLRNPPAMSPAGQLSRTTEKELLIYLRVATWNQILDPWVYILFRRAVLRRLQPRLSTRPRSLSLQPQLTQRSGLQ

[2] = biological target: T2, Thromboxane-A synthase (Homo sapiens, UniProt P24557)
T2 sequence (P24557 whole entry): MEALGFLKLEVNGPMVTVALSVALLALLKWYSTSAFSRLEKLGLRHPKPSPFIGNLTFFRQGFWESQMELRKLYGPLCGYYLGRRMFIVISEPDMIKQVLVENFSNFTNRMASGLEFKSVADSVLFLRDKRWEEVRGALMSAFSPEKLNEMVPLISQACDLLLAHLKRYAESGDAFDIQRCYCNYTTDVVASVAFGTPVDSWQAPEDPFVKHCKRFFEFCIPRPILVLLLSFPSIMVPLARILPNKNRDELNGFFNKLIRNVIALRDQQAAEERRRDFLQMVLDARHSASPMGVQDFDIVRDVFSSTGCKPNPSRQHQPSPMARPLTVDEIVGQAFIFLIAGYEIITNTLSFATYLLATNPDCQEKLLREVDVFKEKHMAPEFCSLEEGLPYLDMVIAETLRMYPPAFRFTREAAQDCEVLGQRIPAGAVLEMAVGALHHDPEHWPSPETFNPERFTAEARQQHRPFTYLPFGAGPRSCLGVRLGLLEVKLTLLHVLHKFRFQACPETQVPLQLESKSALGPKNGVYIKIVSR
Description: Inhibition test of thromboxane A2 synthetase in human gel-filtered platelets.

[3] = species on record: Homo sapiens; experiment: tissue or blood; format: functional, organism-based; conditions: Plasma
Description: Inhibition of collagen-induced platelet aggregation in human platelet-rich plasma.

| Structure (SMILES) | pIC50 [1] | pIC50 [2] | pEC50 [3] |
| --- | --- | --- | --- |
| O=C(O)CCC/C=C(/c1ccc(CCNS(=O)(=O)c2ccc(Cl)cc2)cc1)c1cccnc1 | 6.42 | 6.31 | 4.37 |
| O=S(=O)(NCCc1ccc(/C(=C\CCCc2nnn[nH]2)c2cccnc2)cc1)c1ccc(Cl)cc1 | 7.92 | 7.68 | 5.02 |
| NC(=O)CN(CCc1ccc(/C(=C\CCCC(=O)O)c2cccnc2)cc1)S(=O)(=O)c1ccc(Cl)cc1 | 7.31 | 8.30 | 5.04 |
| O=C(O)c1ccc(/C=C(\c2ccc(CCNS(=O)(=O)c3ccc(Cl)cc3)cc2)c2cccnc2)cc1 | 6.89 | 7.57 | 4.28 |
| COC(=O)CCC/C=C(\c1ccc(CCNS(=O)(=O)c2ccc(Cl)cc2)cc1)c1cccnc1 | 7.44 | 7.48 | 4.96 |
| O=C(O)CCCC(c1ccc(CCNS(=O)(=O)c2ccc(Cl)cc2)cc1)c1cccnc1 (centres undefined) | 7.13 | 7.01 | 4.92 |
| O=C(O)CCO/N=C(\c1ccc(CCNS(=O)(=O)c2ccc(Cl)cc2)cc1)c1cccnc1 | 7.59 | 7.22 | 5.37 |
| O=C(O)CCC/C=C(/c1cccnc1)c1ccc2c(c1)CCC(NS(=O)(=O)c1ccc(Cl)cc1)C2 (centres undefined) | 7.89 | 8.10 | 5.30 |
| Cc1ccc(S(=O)(=O)NCCc2ccc(/C(=C\C(=O)O)c3cccnc3)cc2)cc1 | 5.92 | 5.57 | < 4.00 |
| O=C(O)CCC/C=C(\c1ccc(CCNS(=O)(=O)c2ccccc2)cc1)c1cccnc1 | 7.09 | 8.30 | 5.47 |
| O=C(O)CCCC/C=C(\c1ccc(CCNS(=O)(=O)c2ccc(Cl)cc2)cc1)c1cccnc1 | 7.72 | 7.62 | 5.82 |
| NC(=O)CCC/C=C(\c1ccc(CCNS(=O)(=O)c2ccc(Cl)cc2)cc1)c1cccnc1 | 7.03 | 7.41 | 4.55 |
| O=C(O)CCC/C=C(\c1ccc(CCNS(=O)(=O)Cc2ccccc2)cc1)c1cccnc1 | 6.59 | 8.30 | 5.28 |
| O=C(O)CCC/C=C(/c1cccnc1)c1cccc(CCNS(=O)(=O)c2ccc(Cl)cc2)c1 | 7.92 | 8.40 | 5.77 |
| CN(C)C(=O)CCC/C=C(\c1ccc(CCNS(=O)(=O)c2ccc(Cl)cc2)cc1)c1cccnc1 | 6.52 | 7.36 | 4.40 |
| CC(C)(C)OC(=O)CCC/C=C(\c1ccc(CCNS(=O)(=O)c2ccc(Cl)cc2)cc1)c1cccnc1 | 6.70 | 6.82 | 4.22 |
| O=C(O)CCC/C=C(/c1cccnc1)c1cccc(CNS(=O)(=O)c2ccc(Cl)cc2)c1 | 7.68 | 8.30 | 5.42 |
| O=C(O)CCC/C=C(\c1ccc(CCN(CC(=O)O)S(=O)(=O)c2ccc(Cl)cc2)cc1)c1cccnc1 | 7.21 | 6.51 | 4.36 |
| O=C(O)CCC/C=C(\c1ccc(CCNC(=O)c2ccc(Cl)cc2)cc1)c1cccnc1 | 6.68 | 7.37 | 4.26 |
| O=C(O)CCC/C=C(\c1ccc(CCNS(=O)(=O)c2ccc(Cl)cc2)cc1)c1ccc[n+]([O-])c1 | 5.96 | 4.35 | < 4.00 |
| Cc1ccc(S(=O)(=O)NCCc2ccc(/C(=C\C(=O)NCC(=O)O)c3cccnc3)cc2)cc1 | 5.52 | 4.82 | < 4.00 |
| O=C(O)CCC/C=C(\c1ccc(CCN(Cc2ccccc2)S(=O)(=O)c2ccc(Cl)cc2)cc1)c1cccnc1 | 7.21 | 7.37 | 4.96 |

| Structure (SMILES) | pIC50 [1] | pIC50 [2] | pEC50 [3] |
| --- | --- | --- | --- |
| CNC(=O)CCC/C=C(\c1ccc(CCNS(=O)(=O)c2ccc(Cl)cc2)cc1)c1cccnc1 | 6.77 | 6.60 | 4.62 |
| COc1ccc(S(=O)(=O)NCCc2ccc(/C(=C\CCCC(=O)O)c3cccnc3)cc2)cc1OC | 6.47 | 8.30 | 4.80 |
| Cc1ccc(S(=O)(=O)NCCc2ccc(/C(=C\CCCC(=O)O)c3cccnc3)cc2)cc1 | 7.48 | 8.30 | 6.15 |
| CCN(CCc1ccc(/C(=C\CCCC(=O)O)c2cccnc2)cc1)S(=O)(=O)c1ccc(Cl)cc1 | 7.48 | 8.40 | 4.89 |
| O=C(O)CCC/C=C(\c1ccc(CCNC(=O)Cc2ccccc2)cc1)c1cccnc1 | 5.92 | 7.68 | 5.02 |
| O=C(O)CCC/C=C(\c1ccc(CCNS(=O)(=O)c2ccc(C(F)(F)F)cc2)cc1)c1cccnc1 | 7.55 | 8.22 | 5.55 |
| O=C(O)CCC/C=C(\c1ccc(CCN(CCN2CCOCC2)S(=O)(=O)c2ccc(Cl)cc2)cc1)c1cccnc1 | 7.24 | 8.40 | 4.68 |
| O=C(O)CCC/C=C(/c1cccnc1)c1ccc2c(c1)CC(NS(=O)(=O)c1ccc(F)cc1)C2 (centres undefined) | 8.05 | 9.00 | 6.25 |
| O=C(O)CCC/C=C(\CCCNS(=O)(=O)c1ccc(Cl)cc1)c1cccnc1 | 6.48 | 7.62 | 4.33 |
| Cc1cc(C)c(S(=O)(=O)NCCc2ccc(/C(=C\CCCC(=O)O)c3cccnc3)cc2)c(C)c1 | 7.38 | 7.72 | 4.52 |
| O=C(O)CCCCC(c1ccc(CCNS(=O)(=O)c2ccc(Cl)cc2)cc1)c1cccnc1 (centres undefined) | 7.08 | 8.70 | 5.92 |
| O=C(O)CCCCCC(c1ccc(CCNS(=O)(=O)c2ccc(Cl)cc2)cc1)c1cccnc1 (centres undefined) | 6.68 | 7.51 | 5.92 |
| O=C(O)CCC/C=C(\c1ccc(NS(=O)(=O)c2ccc(Cl)cc2)cc1)c1cccnc1 | 6.57 | 8.30 | < 4.00 |
| Cn1c(CCNS(=O)(=O)c2ccc(F)cc2)ccc1/C(=C\CCCC(=O)O)c1cccnc1 | 6.64 | 8.40 | 5.96 |
| O=C(O)CCC/C=C(\c1ccc(CNS(=O)(=O)c2ccc(Cl)cc2)cc1)c1cccnc1 | 7.26 | 8.15 | 5.30 |
| O=C(O)C/C=C(\c1ccc(CCNS(=O)(=O)c2ccc(Cl)cc2)cc1)c1cccnc1 | 7.92 | 6.00 | 4.43 |
| O=C(O)CCC/C=C(\c1ccc(CCNS(=O)(=O)c2ccc(F)cc2)cc1)c1cccnc1 | 7.18 | 8.40 | 5.51 |
| CCCCS(=O)(=O)NCCc1ccc(/C(=C\CCCC(=O)O)c2cccnc2)cc1 | 5.96 | 8.30 | 5.47 |
| O=C(O)CC/C=C(\c1ccc(CCNS(=O)(=O)c2ccc(Cl)cc2)cc1)c1cccnc1 | 7.38 | 7.68 | 4.44 |
| CC(C)N(CCc1ccc(/C(=C\CCCC(=O)O)c2cccnc2)cc1)S(=O)(=O)c1ccc(Cl)cc1 | 7.29 | 7.60 | < 4.00 |
| O=C(O)CCC(CCCCNS(=O)(=O)c1ccc(Cl)cc1)CCCc1cccnc1 (centres undefined) | 8.22 | 8.22 and 8.40 | 5.24 |
